The test system of series [1] is Pseudomonas aeruginosa (PSA, ATCC 27883). Nature of the series: Synergy checkerboard assay (FIC index). Format: cell-based. The settings on record: Pseudomonas aeruginosa (ATCC 27883).
For series [2], the system named is Klebsiella pneumoniae (KPC, ATCC BAA-1705). The settings on record: ATCC BAA-1705.
Series [3] has as its system Escherichia coli (E. Coli, ATCC 25922). The conditions noted are these: ATCC 25922.
In another series the test system is MRSA (ATCC BAA-1556). The conditions noted are these: MRSA (ATCC BAA-1556).
Series [4] relates to Klebsiella pneumoniae (KPC, ATCC BAA-1705). The conditions noted are these: Klebsiella pneumoniae (ATCC BAA-1705).
The subject of series [5] is Escherichia coli (E. Coli, ATCC 25922). The conditions noted are these: Escherichia coli (ATCC 25922).
For series [6], the system named is Escherichia coli (ATCC 25922). The format is cell-based. The procedure:
(§1) All bacteria pathogens tested clinically reported multi-drug resistant strains. The antibacterial activity was tested against Gram-negative strains namely; Pseudomonas aeruginosa (PSA), Klebsiella pneumoniae (KPC), Escherichia coli (E. coli) and Gram-positive Methicillin-resistant Staphylococcus aureus (MRSA). The minimum inhibitory concentration (MIC) is the lowest concentration of the antibiotic that inhibits microbial growths. MIC is determined by visual inspection or use of spectrophotometer plate reader to determine media turbidity. On the other hand, the minimum bactericidal concentration (MBC) is the lowest concentration that kills […] of bacterial growth. Cytotoxicity of peptides in the hepatic cell line, human skin fibroblast cell line, heart/myocardium cells, and human lung fibroblast cells is shown in FIGS. 36-46). […] (IFX-315)-Au-NP with antibiotics are shown in FIGS. 49-58 when the gold nanoparticles are formed by the peptide followed by addition of the antibiotic. […] (IFX-301) with antibiotics (1:1 ratio) first and then used in the synthesis of Au-NP in antibacterial activities is shown in FIGS. 59-68.
(§2) The MBC is identified by determining the lowest concentration of antibacterial agent that reduces the viability (concentration of peptides necessary to achieve a bactericidal effect) of the initial bacterial inoculum by ≥99.9%.

In series [7] the test system is Klebsiella pneumoniae (ATCC BAA-1705). The format is cell-based. The procedure:
as §1, §2

Series [8] has as its system Methicillin-resistant Staphylococcus aureus MRSA (ATCC BAA-1556). Format: cell-based. The method, then: as §1, §2
The subject of series [9] is Pseudomonas aeruginosa (ATCC 27883). The format is cell-based. The conditions noted are these: ATCC 27883. The method, then:
as §1, §2

Series [10] has as its system Methicillin-resistant Staphylococcus aureus MRSA (ATCC BAA-1556). The conditions noted are these: ATCC BAA-1556.
The test system of series [11] is Pseudomonas aeruginosa (ATCC 27883). The settings on record: ATCC 27883.
The subject of series [12] is Escherichia coli (ATCC 25922). The settings on record: ATCC 25922.
In series [13] the test system is Klebsiella pneumoniae (ATCC BAA-1705). The conditions noted are these: ATCC BAA-1705.
Series [14] concerns Methicillin-resistant Staphylococcus aureus MRSA (ATCC BAA-1556). The settings on record: ATCC BAA-1556. The source holds these as a separate data set.
The test system of series [15] is Pseudomonas aeruginosa (PSA, ATCC 27883). The conditions noted are these: ATCC 27883.
Series [16] is classed as cell-based. The settings on record: Escherichia coli (ATCC 25922).
A further series deals with human red blood cells. More on the design: unit not given beside the values.
Setting [17] is: peptide part of FIC antibiotic/peptides, in combination with antibiotic.
[18] abbreviates: Table 26, peptide in combination with antibiotics.

Converted amounts (≈) assume the structure as drawn. Read-outs that look alike come from different tables or passages of the source. Positions of bridges follow the written chain, without caps; N, C: chain ends. Non-standard residues stand in square brackets, D forms with d. Residues, ends and D or L forms follow the SMILES beside them. 2Nal = N[C@@H](Cc1ccc2ccccc2c1)C(=O)O

As for `N=C(N)NCCC[C@@H]1NC(=O)[C@H](CCCNC(=N)N)NC(=O)[C@H](CCCNC(=N)N)NC(=O)[C@H](CCCNC(=N)N)NC(=O)[C@H](Cc2c[nH]c3ccccc23)NC(=O)[C@H](Cc2c[nH]c3ccccc23)NC(=O)[C@H](Cc2c[nH]c3ccccc23)NC(=O)[C@H](Cc2c[nH]c3ccccc23)NC(=O)[C@H](CCCNC(=N)N)NC(=O)[C@H](CCCNC(=N)N)NC1=O` [IFX-318, [R6W4]] (cyclo(RRRRRRWWWW)), the FIC peptides result in [1] (setting [17]) is on record as “FIC = 4 ug/ml”; with MRSA (ATCC BAA-1556) (setting [17]), “FIC = 2 μg/ml”; in [4] (setting [17]), “FIC = 16 μg/ml”; in [5] (setting [17]) it was “FIC = 8 μg/ml”. Further, in series [2], the “Klebsiella pneumoniae (ATCC BAA-1705) MIC” value (“Klebsiella pneumoniae” for short) was 64 µg/mL. For the same compound, in [3], the “Escherichia coli (ATCC 25922) MIC” value was 32 µg/mL.
`N=C(N)NCCC[C@H](NC(=O)[C@H](CCCNC(=N)N)NC(=O)[C@H](CCCNC(=N)N)NC(=O)[C@@H](N)CCCNC(=N)N)C(=O)N[C@H]1CSSC[C@@H](C(=O)O)NC(=O)[C@H](Cc2c[nH]c3ccccc23)NC(=O)[C@H](Cc2c[nH]c3ccccc23)NC(=O)[C@H](Cc2c[nH]c3ccccc23)NC(=O)[C@H](Cc2c[nH]c3ccccc23)NC1=O` [IFX-333] (H-RRRRCWWWWC-OH; disulfide 5-10): in series [6], the “E. coli (ATCC 25922) MBC” value was found to be 32 µg/mL. The “KPC (ATCC BAA-1705) MBC” value in [7] worked out at 64 µg/mL. For the same compound, in [8], the “MRSA (ATCC BAA-1556) MBC” value was 32 µg/mL. Also, in series [9], the “PSA (ATCC 27883) MBC” value turned out to be 128 µg/mL. In addition, the “MRSA (ATCC BAA-1556) MIC” value in [10] is 16 µg/mL. In [11], the “PSA (ATCC 27883 MIC)” value amounted to 128 µg/mL. Besides, the “E. coli (ATCC 25922) MIC” value in series [12] came to 16 µg/mL. For the same compound, the “KPC (ATCC BAA-1705) MIC” value in series [13] came to 32 µg/mL.
With `N=C(N)NCCC[C@H](NC(=O)[C@H](CCCNC(=N)N)NC(=O)[C@H](CCCNC(=N)N)NC(=O)[C@@H](N)CCCNC(=N)N)C(=O)N[C@@H](CS)C(=O)N[C@@H](Cc1c[nH]c2ccccc12)C(=O)N[C@@H](Cc1c[nH]c2ccccc12)C(=O)N[C@@H](Cc1c[nH]c2ccccc12)C(=O)N[C@@H](Cc1c[nH]c2ccccc12)C(=O)N[C@@H](CS)C(=O)O` [IFX-331] (H-RRRRCWWWWC-OH), in series [6], the “E. coli (ATCC 25922) MBC” value was found to be 32 µg/mL. For the same compound, in [7], the “KPC (ATCC BAA-1705) MBC” value came out at 128 µg/mL. For the same compound, in [8], the “MRSA (ATCC BAA-1556) MBC” value turned out to be 32 µg/mL. Moreover, the “PSA (ATCC 27883) MBC” value in series [9] stood at 265 µg/mL. Besides, the “MRSA (ATCC BAA-1556) MIC” value in [10] came to 16 µg/mL. In addition, the “PSA (ATCC 27883 MIC)” value in series [11] came out at 128 µg/mL. In addition, in series [12], the “E. coli (ATCC 25922) MIC” value amounted to 32 µg/mL. In [13], the “KPC (ATCC BAA-1705) MIC” value was determined as 64 µg/mL.
`N=C(N)NCCC[C@@H]1NC(=O)[C@H](CCCNC(=N)N)NC(=O)[C@H](CCCNC(=N)N)NC(=O)[C@H](CCCCN)NC(=O)[C@H](Cc2c[nH]c3ccccc23)NC(=O)[C@H](Cc2c[nH]c3ccccc23)NC(=O)[C@H](Cc2c[nH]c3ccccc23)NC(=O)[C@H](Cc2c[nH]c3ccccc23)NC(=O)[C@H](CCCNC(=N)N)NC(=O)[C@H](CCCNC(=N)N)NC1=O` [[R4W5K] (IFX-315)] (cyclo(RRRRRWWWWK)): the “MRSA (ATCC BAA-1556) MIC” value in series [14] worked out at 4 µg/mL. The “Pseudomonas aeruginosa (ATCC 27883) MIC” value in series [15] came out at 16 µg/mL. Moreover, the “Klebsiella pneumoniae” value in [2] stood at 32 µg/mL. Besides, the “Escherichia coli (ATCC 25922) MIC” value in series [3] stood at 16 µg/mL.
Regarding `N=C(N)NCCC[C@@H]1NC(=O)[C@H](CS)NC(=O)[C@H](Cc2c[nH]c3ccccc23)NC(=O)[C@H](Cc2c[nH]c3ccccc23)NC(=O)[C@H](Cc2c[nH]c3ccccc23)NC(=O)[C@H](Cc2c[nH]c3ccccc23)NC(=O)[C@H](CS)NC(=O)[C@H](CCCNC(=N)N)NC(=O)[C@H](CCCNC(=N)N)NC(=O)[C@H](CCCNC(=N)N)NC1=O` [IFX-329] (cyclo(RRRCWWWWCR)), in [6], the “E. coli (ATCC 25922) MBC” value worked out at 64 µg/mL. Besides, the “KPC (ATCC BAA-1705) MBC” value in series [7] came out at 32 µg/mL. Also, in series [8], the “MRSA (ATCC BAA-1556) MBC” value came to 32 µg/mL. For the same compound, the “PSA (ATCC 27883) MBC” value in series [9] stood at 128 µg/mL. Also, the “MRSA (ATCC BAA-1556) MIC” value in [10] amounted to 8 µg/mL. Besides, the “PSA (ATCC 27883 MIC)” value in series [11] was determined as 128 µg/mL. Further, the “E. coli (ATCC 25922) MIC” value in series [12] came out at 32 µg/mL. The “KPC (ATCC BAA-1705) MIC” value in series [13] is 32 µg/mL.
For the compound Polymyxin B, the “MIC, MgCl2” value in series [16] (MH broth + 1 mM MgCl2) was found to be 1.5 µg/mL. The “MIC, CaCl2” value in [16] (MH broth + 2 mM CaCl2) was 0.7 µg/mL. Moreover, the “MIC, NH4Cl” value in series [16] (MH broth + 6 mM NH4Cl) turned out to be 0.7 µg/mL. The “MIC, NaCl” value in series [16] (MH broth + 150 mM NaCl) came to 0.7 µg/mL. Also, the “MIC, FBS” value in [16] (MH broth + FBS (25%)) amounted to 0.7 µg/mL. The “MIC, KCl” value in [16] (MH broth + […] KCl) worked out at 0.7 µg/mL. In addition, the “MIC, MH Media” value in series [16] (MH broth, no supplement) was found to be 0.7 µg/mL.
Take `N=C(N)NCCC[C@@H]1NC(=O)[C@H](CCCNC(=N)N)NC(=O)[C@H](CCCNC(=N)N)NC(=O)[C@H](CCCCN)NC(=O)[C@H](Cc2c[nH]c3ccccc23)NC(=O)[C@H](Cc2c[nH]c3ccccc23)NC(=O)[C@H](Cc2c[nH]c3ccccc23)NC(=O)[C@H](Cc2c[nH]c3ccccc23)NC(=O)[C@H](CCCNC(=N)N)NC(=O)[C@H](CCCNC(=N)N)NC1=O` [IFX-315, [R5W4K]] (cyclo(RRRRRWWWWK)): the “MIC (peptide)” value in series [1] (Table 26, peptide alone) was “MIC = 16 ug/ml”; against MRSA (ATCC BAA-1556) (Table 26, peptide alone), “MIC = 8 ug/ml”; in series [4] (Table 26, peptide alone) it was “MIC = 64 ug/ml”; in [5] (Table 26, peptide alone), “MIC = 16 ug/ml”. In addition, the “FIC (peptide)” value is listed as “FIC = 4 ug/ml” in series [1] (setting [18]), “FIC = 2 ug/ml” in the series on MRSA (ATCC BAA-1556) (setting [18]), “FIC = 16 ug/ml” in series [4] (setting [18]) and “FIC = 4 ug/ml” in series [5] (setting [18]). Moreover, the “MIC MRSA ATCC BAA-1556” value in [10] came to 4 µg/mL (≈ 2.42 µM). Besides, in [11], the “MIC P. aeruginosa ATCC 27883” value is 16 µg/mL (≈ 9.67 µM). The “MIC E. coli ATCC 25922” value in series [12] came to 16 µg/mL (≈ 9.67 µM). Moreover, the “MIC K. pneumoniae (ATCC BAA-1705)” value in series [13] was 32 µg/mL (≈ 19.3 µM). Also, the “MRSA (ATCC BAA-1556) MIC” value in series [14] worked out at 4 µg/mL. Further, in series [15], the “Pseudomonas aeruginosa (ATCC 27883) MIC” value was 16 µg/mL. Moreover, the “Klebsiella pneumoniae” value in [2] amounted to 32 µg/mL. Also, the “Escherichia coli (ATCC 25922) MIC” value in series [3] turned out to be 16 µg/mL.
With `N=C(N)NCCC[C@@H]1NC(=O)[C@H](CCCNC(=N)N)NC(=O)[C@H](CCCNC(=N)N)NC(=O)[C@H](Cc2c[nH]c3ccccc23)NC(=O)[C@H](Cc2ccc3ccccc3c2)NC(=O)[C@H](Cc2ccc3ccccc3c2)NC(=O)[C@H](CCCNC(=N)N)NC1=O` [IFX-031, c[Arg-Arg-Arg-Arg-NaI-NaI-Trp]] (cyclo(RRRR[2Nal][2Nal]W)), in series [10], the “MIC MRSA ATCC BAA-1556” value worked out at 1.5 µg/mL (≈ 1.24 µM). For the same compound, the HC50 in the series with human red blood cells came to 350. For the same compound, the “MRSA (ATCC BAA-1556) MIC” value in series [14] is 2 µg/mL. Moreover, the “Pseudomonas aeruginosa (ATCC 27883) MIC” value in series [15] came out at 16 µg/mL. Further, the “Klebsiella pneumoniae” value in series [2] came to 32 µg/mL. Moreover, the “Escherichia coli (ATCC 25922) MIC” value in [3] is 16 µg/mL.

The record behind these values is patent US20220289794A1, “SYNTHETIC ANTIMICROBIAL PEPTIDES” (priority 2019, published 2022).
